The subject of one experiment is lung line L2987. Briefly: Cytotoxicity assay (alamarBlue cell viability), lung line L2987, experiment 2. The experiment is classed as cell-based. The conditions noted are these: Homo sapiens. The method, then: FIG. 1 is the cytotoxicity dose response curves for lung line L2987. […] Briefly, the assayed involved plating 1000 cells per well in a volume of 120 μL in a 96 well flat-bottom dish (Corning) on day -1. Twenty-four hours later the appropriate dilution of a compound of formula I was added in a volume of 30 μL complete medium (final volume 150 μL). The plates were sealed with a plate sealer (Dynatech Labs) to prevent evaporation. On day 5 the mylar film was removed and 15 μL of sterile alamarBlue was added to each well and the cells were incubated 37° C. 5% CO2 for two hours. Using a Vmax plate reader the optical density for each well was determined having the […]. The 100% signal was determined for cells grown in complete medium containing only 0.5% DMSO. All wells were set-up in triplicate and the mean values were plotted in FIG. 1.

Experiment [1] has as its system second primary tumors in squamous-cell carcinoma of the head and neck. The conditions noted are these: Hong et al., N. Engl. J. Med., 1990; cited from earlier work.
Setting [2] is: L2987 lung line, 1000 cells per well, compound added 24 h after plating, read on day 5 with alamarBlue, triplicate wells, read-out: IC50 values for L2987 experiment 2.

Read-outs that look alike come from different tables or passages of the source.

For the compound `O=C(O)c1ccc(NC(=O)c2ccc3cccc(-c4ccccc4)c3c2)cc1` [I^2' a, 4-[[(8-phenyl-2-naphthalenyl)carbonyl]amino]benzoic acid], in the experiment on lung line L2987 (setting [2]), the concentration for half-maximal inhibition (IC50) (commonly the concentration at which inhibition is half-maximal) worked out at 72 µM.

For the compound `CC1=C(/C=C/C(C)=C/C=C/C(C)=C\C(=O)O)C(C)(C)CCC1` [Isotretinoin], the “prevention of second primary tumors in squamous-cell carcinoma of the head and neck” value in experiment [1] is “shown to be useful in prevention of second primary tumors”.

Turning to `CC1=C(/C=C/C(C)=C/C=C/C(C)=C/C(=O)O)C(C)(C)CCC1` [All trans retinoic acid, reference compound], in the experiment with lung line L2987 (L2987, read-out: IC50 values for L2987 experiment 2), the 50% inhibitory concentration (IC50) is 68 µM.

`Cc1ccc(-c2cccc3ccc(C(=O)Nc4ccc(C(=O)O)cc4)cc23)cc1C` [I^2' f, 4-[[[8-(3,4-Dimethylphenyl)-2-naphthalenyl]carbonyl]amino]benzoic acid]: in the experiment on lung line L2987 (setting [2]), the IC50 was 49 µM.

On to `Cc1cc(C)cc(-c2cccc3ccc(C(=O)Nc4ccc(C(=O)O)cc4)cc23)c1` [I^2' b, 4-[[[8(3,5-Dimethylphenyl)-2-naphthalenyl]carbonyl]amino]benzoic acid], for which the IC50 with lung line L2987 (setting [2]) was determined as 39 µM.

`Cc1ccc(-c2cccc3ccc(C(=O)Nc4ccc(C(=O)O)cc4)cc23)c(C)c1` [I^2' g, 4-[[[8-(2,4 -Dimethylphenyl)-2-naphthalenyl]carbonyl]amino]benzoic acid]: the IC50 in the experiment on lung line L2987 (setting [2]) is 54 µM.

Values taken from patent US5523457A, “Retinoid-like compounds” (Bristol-Myers Squibb Company, priority 1995, dated 1996).
